According to patent EP0337600A2, “Benzoylurea derivative, process for producing the same, insecticide containing the same, reaction intermediate of the same and process for producing the intermediate” (priority 1988, dated 1989):

Columns and labels:
Type in all cases: in vivo
[1] = test system: diamond-back moth (Plutella xylostella) (field-strain); assay: Hatching of diamond-back moth eggs laid on dipped germinated Japanese radish (Test Example 3); conditions: 1.25 ppm (diluted 80,000 times with water); radish dipped 30 seconds before egg laying; hatching counted after 5 days; repeated twice; four grades
Method: Two pieces of germinated Japanese radish which had been sowed 5 or 6 days before were dipped for 30 seconds in the aqueous dilute solution. After air-drying for about 1 hour, these germinated radish were put in a cage wherein a large number of adult diamond-back moth (Plutella xylostella) (field-strain) of an age of 1-3 days after the emergence were released, and they were allowed to lay eggs. When the number of eggs per germinated radish reached 100 to 150, the radish were taken out of the cage and each two pieces thereof were put in a polyethylene cup of 5.5 cm in diameter. After 5 days, the number of hatching was counted to obtain percentage of hatching. The test was repeated twice.

[2] = test system: common mosquito (Culex pipiens pallens); assay: Inhibition of adult emergence of common mosquito larvae in aqueous dilute emulsion (Test Example 1); conditions: 3.5 ppm (emulsifiable concentrate diluted 28,600 times with water), 20 last-instar larvae in 100 ml, bred until emergence, repeated twice
Method: The emulsifiable concentrate of each of the following present compounds prepared according to Formulation Example 1 was diluted 28,600 times with water (corresponding to 3.5 ppm). And 100 ml of each aqueous dilute emulsion thus obtained were charged in a 180-ml polyethylene cup. Then 20 last-instar larvae of common mosquito (Culex pipiens pallens) were released therein. The larvae were bred on baits until emergence to obtain percentage of inhibition of adult emergence. The test was repeated twice.

[3] = test system: tobacco cutworm (Spodoptera litura); assay: Mortality of tobacco cutworm larvae on sprayed cabbage (Test Example 2); conditions: for mortality at 0.5 ppm: Spodoptera litura, 120 h; for Mortality (%): 0.5 ppm (diluted 200,000 times with water), 30 ml sprayed onto cabbage, 5 fourth-instar larvae, after 5 days, repeated three times
Method: The emulsifiable concentrate of each of the following present compounds and controls prepared according to Formulation Example 1 was diluted 200,000 times with water (corresponding to 0.5 ppm). And 30 ml of each aqueous dilute solution thus obtained were sprayed onto cabbage cultivated in a plastic cup on a turn table, which cabbage had been planted one month before. After air-drying, 5 fourth-instar larvae of tobacco cutworm (Spodoptera litura) were released thereon, and after 5 days, the dead and alive were counted for mortality. This test was repeated three times.

SMILES	Percentage of hatching [1]	inhibition at 3.5 ppm [2] [%]	mortality at 0.5 ppm [3] [%]	Mortality (%) [3] [%]
O=C(NC(=O)c1c(F)cccc1F)Nc1ccc(OC(F)(F)C(F)(F)Br)cc1F [(1)]	A (A: 0%)	100	100	
O=C(NC(=O)c1c(F)cccc1F)Nc1ccc(OC(F)(F)C(Cl)Cl)cc1F [(2)]	A (A: 0%)	100	93	
O=C(NC(=O)c1ccccc1Cl)Nc1ccc(OC(F)(F)C(Cl)Cl)cc1F [(3)]	A (A: 0%)	100	100	
O=C(NC(=O)c1c(F)cccc1F)Nc1ccc(OC(F)(F)C(Br)Br)cc1F [(4)]	A (A: 0%)	100	100	
O=C(NC(=O)c1c(F)cccc1F)Nc1ccc(OC(F)(F)C(F)Cl)cc1F (stereo not shown) [(5)]	A (A: 0%)	100	93	
O=C(NC(=O)c1ccccc1Cl)Nc1ccc(OC(F)(F)C(F)Cl)cc1F (stereo not shown) [(6)]	A (A: 0%)	100	100	
O=C(NC(=O)c1c(F)cccc1F)Nc1ccc(OC(F)(F)C(F)C(F)(F)F)cc1F (stereo not shown) [(7)]	A (A: 0%)	100	100	
O=C(NC(=O)c1ccccc1Cl)Nc1ccc(OC(F)(F)C(F)C(F)(F)F)cc1F (stereo not shown) [(8)]	A (A: 0%)	100	100	
O=C(NC(=O)c1c(F)cccc1F)Nc1ccc(OC(F)(F)C(F)OC(F)(F)C(F)(F)C(F)(F)F)cc1F (stereo not shown) [(9)]	A (A: 0%)	100	100	
O=C(NC(=O)c1ccccc1Cl)Nc1ccc(OC(F)(F)C(F)OC(F)(F)C(F)(F)C(F)(F)F)cc1F (stereo not shown) [(10)]	A (A: 0%)	100	100	
O=C(NC(=O)c1c(F)cccc1F)Nc1ccc(OC(F)(F)C(F)OC(F)(F)F)cc1F (stereo not shown) [(11)]	A (A: 0%)	100	100	
O=C(NC(=O)c1ccccc1Cl)Nc1ccc(OC(F)(F)C(F)OC(F)(F)F)cc1F (stereo not shown) [(12)]	A (A: 0%)	100	100	
O=C(NC(=O)c1c(F)cccc1F)Nc1ccc(Cl)cc1 [(A), reference compound]	D (D: 21% or more)			13
O=C(NC(=O)c1ccccc1Cl)Nc1ccc(OC(F)(F)F)cc1 [(B), reference compound]	D (D: 21% or more)			0
